Results taken from ChEMBL document CHEMBL1156829 (Proc Natl Acad Sci U S A, 2008).

Columns and labels:
Plasmodium falciparum [1] = assay: NOVARTIS: Inhibition of Plasmodium falciparum W2 (drug-resistant) proliferation in erythrocyte-based infection assay; assay type: functional, organism-based
Plasmodium falciparum [2] = assay: NOVARTIS: Inhibition of Plasmodium falciparum 3D7 (drug-susceptible) proliferation in erythrocyte-based infection assay; assay type: functional, organism-based; conditions: Plasmodium falciparum, 3D7
[3] = NOVARTIS: Cytotoxicity against human hepatocellular carcinoma cell line (Huh7); assay type: toxicity, cell-based, Huh-7; conditions: Huh7 cells (hepatocellular carcinoma cell line)
[4] = Plasmodium falciparum, W2, read-out: EC50

Q: Which EC50 (Plasmodium falciparum [1]; [4]) does the source give for `CCCOC(=O)C1=C(C)NC2=C(C(=O)CC(c3ccc(OC)c(OC)c3)C2)C1c1ccccc1Br` (configuration not stated) here?
A: 11.2 nM

Q: What about the EC50 (Plasmodium falciparum [2]) of the same compound?
A: 76.6 nM

Q: And the CC50 [3]?
A: > 100000 nM

Q: What does the source list for `CCCOC(=O)C1=C(C)NC2=C(C(=O)CC(c3ccc(OC)c(OC)c3)C2)C1c1ccccc1F` (configuration not stated)?
A: EC50 (Plasmodium falciparum [1]; [4]): 5.41 nM; EC50 (Plasmodium falciparum [2]): 6.71 nM; CC50 [3]: > 100000 nM

Q: For `CCOC(=O)C1=C(C)NC2=C(C(=O)CC(c3ccc(OC)c(OC)c3)C2)C1c1ccc(Br)cc1` (configuration not stated), which EC50 (Plasmodium falciparum [1]; [4]) is on record?
A: 4.81 nM

Q: And the EC50 (Plasmodium falciparum [2])?
A: 18.2 nM

Q: And the CC50 [3]?
A: > 100000 nM

Q: Which EC50 (Plasmodium falciparum [1]; [4]) does the source give for `COc1ccc(C(OCC(=O)N2CCN(Cc3ccccc3)CC2)c2ccc(F)cc2)cn1` (configuration not stated) here?
A: 187 nM

Q: What about the EC50 (Plasmodium falciparum [2]) of the same compound?
A: 733 nM

Q: What about the CC50 [3] of the same compound?
A: > 10000 nM

Q: For `CCCc1cc(-c2onc(C)c2-c2ccc(C(=O)OCC)o2)c(O)cc1OC`, which EC50 (Plasmodium falciparum [1]; [4]) is on record?
A: 346 nM

Q: And the EC50 (Plasmodium falciparum [2])?
A: 413 nM

Q: And the CC50 [3]?
A: 18500 nM

Q: With `CCOc1cc2c(cc1OCC)C(c1ccc(O)c(Cl)c1)NCC2` (configuration not stated) as the compound, how does the EC50 (Plasmodium falciparum [1]; [4]) read?
A: 12.5 nM

Q: What about the EC50 (Plasmodium falciparum [2]) of the same compound?
A: 157 nM

Q: What about the CC50 [3] of the same compound?
A: > 97900 nM

Q: Which EC50 (Plasmodium falciparum [1]; [4]) does the source give for `COc1cccc(CNCCCCCCCCCCCCNCc2cccc(OC)c2O)c1O` here?
A: 1010 nM

Q: And the EC50 (Plasmodium falciparum [2])?
A: 819 nM

Q: What about the CC50 [3] of the same compound?
A: 53500 nM

Q: Which EC50 (Plasmodium falciparum [1]; [4]) does the source give for `C=CC[n+]1cccc2c3ccccc3ccc21` here?
A: 1900 nM

Q: What about the EC50 (Plasmodium falciparum [2]) of the same compound?
A: 1720 nM

Q: What about the CC50 [3] of the same compound?
A: > 100000 nM

Q: With `O=C1NC(=S)N/C1=C/c1cccc(Oc2ccccc2)c1` as the compound, how does the EC50 (Plasmodium falciparum [1]; [4]) read?
A: > 191 nM

Q: What about the EC50 (Plasmodium falciparum [2]) of the same compound?
A: 1880 nM

Q: And the CC50 [3]?
A: > 10000 nM

Q: For `O=C(Cc1ccsc1)NC1CCN(CC(O)CN(Cc2ccccc2)S(=O)(=O)c2ccccc2)C1` (configuration not stated), which EC50 (Plasmodium falciparum [1]; [4]) is on record?
A: 188 nM

Q: What about the EC50 (Plasmodium falciparum [2]) of the same compound?
A: 411 nM

Q: What about the CC50 [3] of the same compound?
A: > 10000 nM

Q: Which results are given for `COc1ccc2nc(C)cc(Nc3ccc(Br)cc3)c2c1`?
A: EC50 (Plasmodium falciparum [1]; [4]): 369 nM; EC50 (Plasmodium falciparum [2]): 201 nM; CC50 [3]: 19700 nM

Q: For `COc1ccc(-n2c(CNC(=O)c3cccc4ccccc34)n[nH]c2=S)cc1`, which EC50 (Plasmodium falciparum [1]; [4]) is on record?
A: 1890 nM

Q: And the EC50 (Plasmodium falciparum [2])?
A: 1100 nM

Q: And the CC50 [3]?
A: > 100000 nM

Q: With `Cc1cc(Nc2cc(Cl)cc(Cl)c2)n2nc(C)nc2n1` as the compound, how does the EC50 (Plasmodium falciparum [1]; [4]) read?
A: 1870 nM

Q: What about the EC50 (Plasmodium falciparum [2]) of the same compound?
A: 1330 nM

Q: What about the CC50 [3] of the same compound?
A: > 100000 nM

Q: For `OC1=C2C(=Nc3ccccc3SC2c2cccs2)c2ccccc21` (configuration not stated), which EC50 (Plasmodium falciparum [1]; [4]) is on record?
A: < 2.47 nM

Q: And the EC50 (Plasmodium falciparum [2])?
A: 42.8 nM

Q: What about the CC50 [3] of the same compound?
A: 49500 nM

Q: What does the source list for `CCOc1cc(C(=O)Nc2ccc(-c3nc4ccccc4[nH]3)cc2)cc(OCC)c1OCC`?
A: EC50 (Plasmodium falciparum [1]; [4]): 763 nM; EC50 (Plasmodium falciparum [2]): 229 nM; CC50 [3]: 40000 nM

Q: Which EC50 (Plasmodium falciparum [1]; [4]) does the source give for `COc1ccc(C2CC3=NC(C)=C(C(=O)OC(C)C)C(c4ccccc4Cl)C3=C(O)C2)cc1OC` (configuration not stated) here?
A: 4.11 nM

Q: What about the EC50 (Plasmodium falciparum [2]) of the same compound?
A: 6.21 nM

Q: And the CC50 [3]?
A: > 100000 nM

Q: What does the source list for `O=C(CCl)NCCCCNc1ccnc2cc(Cl)ccc12`?
A: EC50 (Plasmodium falciparum [1]): No fit; EC50 (Plasmodium falciparum [2]): > 811 nM; CC50 [3]: > 10000 nM

Q: What does the source list for `CCCC(=O)Oc1ccccc1-c1nc2cc(C)ccn2c1NC(C)(C)CC(C)(C)C`?
A: EC50 (Plasmodium falciparum [1]; [4]): 1890 nM; EC50 (Plasmodium falciparum [2]): 3550 nM; CC50 [3]: > 100000 nM

Q: With `COc1ccc(-n2c(SCC(=O)Nc3cc(Cl)ccc3OC)nnc2-c2ccccc2)cc1` as the compound, how does the EC50 (Plasmodium falciparum [1]; [4]) read?
A: < 1.06 nM

Q: And the EC50 (Plasmodium falciparum [2])?
A: > 1100 nM

Q: And the CC50 [3]?
A: > 11400 nM

Q: With `COCCOC(=O)C1=C(C)NC2=C(C(=O)CC(c3ccc(OC)c(OC)c3)C2)C1c1ccccc1F` (configuration not stated) as the compound, how does the EC50 (Plasmodium falciparum [1]; [4]) read?
A: 11.8 nM

Q: And the EC50 (Plasmodium falciparum [2])?
A: 82 nM

Q: And the CC50 [3]?
A: > 100000 nM

Q: Which results are given for `O=C(c1ccc([N+](=O)[O-])cc1)C1C(C(=O)c2ccc(F)cc2)C2(C(=O)Nc3ccccc32)C2C=Cc3ccccc3N12` (configuration not stated)?
A: EC50 (Plasmodium falciparum [1]; [4]): 188 nM; EC50 (Plasmodium falciparum [2]): > 622 nM; CC50 [3]: > 10000 nM

Q: With `CC[n+]1c(C)cc2c(sc3ccccc32)c1C` as the compound, how does the EC50 (Plasmodium falciparum [1]; [4]) read?
A: 1870 nM

Q: And the EC50 (Plasmodium falciparum [2])?
A: 1050 nM

Q: What about the CC50 [3] of the same compound?
A: > 100000 nM

Q: What does the source list for `CCCOC(=O)C1=C(C)NC2=C(C(=O)CC(c3ccc(OC)c(OC)c3)C2)C1c1ccc(Cl)cc1Cl` (configuration not stated)?
A: EC50 (Plasmodium falciparum [1]; [4]): 4.36 nM; EC50 (Plasmodium falciparum [2]): 7.62 nM; CC50 [3]: > 100000 nM

Q: Which EC50 (Plasmodium falciparum [1]) does the source give for `CCCCCCc1cc2cc(-c3nc4ccccc4[nH]3)c(=Nc3ccccc3C)oc2cc1O` here?
A: No fit

Q: And the EC50 (Plasmodium falciparum [2])?
A: 2120 nM

Q: What about the CC50 [3] of the same compound?
A: > 100000 nM

Q: Which EC50 (Plasmodium falciparum [1]) does the source give for `CC(C)(C)c1cc(CCC(=O)Nc2c3c(nc4ccccc24)N(c2cccc(Cl)c2)CC3)cc(C(C)(C)C)c1O` here?
A: No fit

Q: What about the EC50 (Plasmodium falciparum [2]) of the same compound?
A: 6650 nM

Q: What about the CC50 [3] of the same compound?
A: > 100000 nM

Q: Which EC50 (Plasmodium falciparum [1]; [4]) does the source give for `CN1C(=O)N(C)C(NNC(N)=S)C1NNC(N)=S` (configuration not stated) here?
A: 6.21 nM

Q: And the EC50 (Plasmodium falciparum [2])?
A: 8.92 nM

Q: What about the CC50 [3] of the same compound?
A: > 100000 nM

Q: What does the source list for `COc1cc(NC(C)CCCN(Cc2ccc(Cl)cc2)C(=O)Nc2ccccc2F)c2ncccc2c1` (configuration not stated)?
A: EC50 (Plasmodium falciparum [1]; [4]): < 0.572 nM; EC50 (Plasmodium falciparum [2]): > 1090 nM; CC50 [3]: > 8250 nM

Q: What does the source list for `CC(c1nc2ccccc2c(=O)n1C)N1CCN(C(=O)C(C)(C)C)CC1` (configuration not stated)?
A: EC50 (Plasmodium falciparum [1]; [4]): 191 nM; EC50 (Plasmodium falciparum [2]): 185 nM; CC50 [3]: > 10000 nM

Q: What does the source list for `CSc1nnc(NC(=O)C2CC2)s1`?
A: EC50 (Plasmodium falciparum [1]; [4]): 1910 nM; EC50 (Plasmodium falciparum [2]): > 12500 nM; CC50 [3]: > 100000 nM

Q: What does the source list for `O=C(CSc1nc2ccccc2c(=O)n1CCCN1CCOCC1)Nc1cccc(S(=O)(=O)N2CCCCCC2)c1`?
A: EC50 (Plasmodium falciparum [1]; [4]): 1180 nM; EC50 (Plasmodium falciparum [2]): 470 nM; CC50 [3]: 62100 nM

Q: For `CCOC(=O)C(=O)N1c2ccc(OC)cc2-c2c(ssc2=S)C1(C)C`, which EC50 (Plasmodium falciparum [1]; [4]) is on record?
A: 3.19 nM

Q: What about the EC50 (Plasmodium falciparum [2]) of the same compound?
A: 2.43 nM

Q: What about the CC50 [3] of the same compound?
A: > 100000 nM

Q: What does the source list for `Cc1ccn(CC(=O)N2CCOc3c(cc(-c4csc5ccccc45)cc3OCCc3ccccn3)C2)n1`?
A: EC50 (Plasmodium falciparum [1]; [4]): 730 nM; EC50 (Plasmodium falciparum [2]): 823 nM; CC50 [3]: 39000 nM

Q: With `O=C(NN=Cc1ccc(O)cc1O)c1ccncc1` as the compound, how does the EC50 (Plasmodium falciparum [1]; [4]) read?
A: 1880 nM

Q: And the EC50 (Plasmodium falciparum [2])?
A: 4750 nM

Q: And the CC50 [3]?
A: > 100000 nM

Q: Which EC50 (Plasmodium falciparum [1]) does the source give for `Cc1nc2cc(-c3ccc(Br)cc3)nn2c(O)c1C` here?
A: No fit

Q: What about the EC50 (Plasmodium falciparum [2]) of the same compound?
A: 2740 nM

Q: And the CC50 [3]?
A: > 100000 nM
